Series [1] has as its system C5a induced PMNs chemotaxis. Briefly: C5a induced PMN chemotaxis assay. It is filed as cell-based. Particulars: human PMNs; for inhibition at 0.01 µM: compound at 10^−8M, read-out: PMN migration by C5a % of inhibition (10^−8M); for PMN migration by C5a % of inhibition: tested at 10^−6M. How it is done:
(§1) The compounds of the invention of formula (I) were evaluated in vitro for their ability to inhibit chemotaxis of polymorphonucleate leukocytes (hereinafter referred to as PMNs) and monocytes induced by the fractions of IL-8 and GRO-α and C5a. For this purpose, in order to isolate the PMNs from heparinized human blood, taken from healthy adult volunteers, mononucleates were removed by means of sedimentation on dextran (according to the procedure disclosed by W. I. Ming et al., J. Immunol., 138, 1469, 1987) and red blood cells by a hypotonic solution. The cell vitality was calculated by exclusion with Trypan blue, whilst the ratio of the circulating polymorphonucleates was estimated on the cytocentrifugate after staining with Diff Quick.
In the C5a induced chemotaxis essay the fractions hrC5a and hrC5a-desArg (Sigma) were used as stimulating agents in chemotaxis experiments, obtaining practically identical results, Lyophilized C5a was dissolved in a volume of HBSS containing 0.2% BSA so as to obtain a stock solution having a concentration of 10^−5 M, to be diluted in HBSS to a concentration of 10^−9 M, for the chemotaxis assays.
(§2) In the chemotaxis experiments, the PMNs were incubated with the compounds of the invention of formula (I) for 15′ at 37° C. in an atmosphere containing 5% CO2.
The chemotactic activity of the C5a was evaluated on human circulating polymorphonucleates (PMNs) resuspended in HBSS at a concentration of 1.5×10^6 PMNs per ml.
(§3) During the chemotaxis assay (according to W. Falket et al., J. Immunol. Methods, 33, 239, 1980) PVP-free filters with a porosity of 5 μm and microchambers suitable for replication were used.
(§4) The compounds of the invention in formula (I) were evaluated at a concentration ranging between 10^−6 and 10^−10 M; for this purpose they were added, at the same concentration, both to the lower pores and the upper pores of the microchamber. Evaluation of the ability of the compounds of the invention of formula (I) to inhibit the chemotaxis of human monocytes was carried out according to the method disclosed by Van Damme J. et al. (Eur. J. Immunol., 19, 2367, 1989).

Series [2] concerns GRO-α induced PMN chemotaxis. Briefly: GRO-α induced PMN chemotaxis assay. It is filed as cell-based. Particulars: human PMNs; for PMN migration by GROα % of inhibition: tested at 10^−6M; for inhibition at 0.01 µM: compound at 10^−8M, read-out: PMN migration by GROα % of inhibition (10^−8M). Here is the method:
as §1
GRO-α induced chemotaxis inhibition was evaluated in an analogous assay.
as §2, §3, §4

In series [3] the test system is human PMNs chemotaxis induced by IL-8. Briefly: IL-8 induced PMN chemotaxis assay. It is filed as cell-based. Particulars: compound at 10^−9M, read-out: PMN migration by IL-8 % of inhibition (10^−9M). How it is done:
as §1
In the IL-8 induced chemotaxis assay human recombinant IL-8 (Pepro Tech) was used as stimulating agents in the chemotaxis experiments: the lyophilized protein was dissolved in a volume of HBSS containing 0.2% bovin serum albumin (BSA) so thus to obtain a stock solution having a concentration of 10^−5 M to be diluted in HBSS to a concentration of 10^−9 M, for the chemotaxis assays.
as §2, §3, §4

A short description of series [4]: Pharmacokinetic profile in male mice after intravenous and oral administration. It is filed as in vivo. Particulars: mouse, plasma; for bioavailability: intravenous and oral administration. Here is the method: The pharmacokinetic profile (t1/2, oral bioavailability, etc) of claimed compounds was evaluated in male mice after intravenous and oral administration. The pharmacokinetic analysis was performed using compounds plasmatic concentrations at different times. The data were evaluated by Kinetica 2000™, Version 3.0 Software [InnaPhase Corporation, World headquarters, 1700 Race Street, Philadelphia, Pa. 19103 USA].

The nature of series [5]: Protein binding in rat plasma (ultrafiltration). It is filed as in vitro ADME. Particulars: 37° C. How it is done:
Protein Binding was determined as follows: Duplicate rat plasma samples of each compound at 50 μg/mL concentration were incubated at 37° C. for 20 minutes under gentle shaking. Then samples were ultrafiltrated through Centrifree® micropartition devices by centrifugation at 1500 g for 15 minutes. The ultrafiltrate was subjected to HPLC-MS/MS quantitative analysis (Column Luna C18, 150×2 mm ID 5 μm (Phenomenex), mobile phase: eluent A) 0.02M HCOO^−NH4^+ (pH 4.3 with HCOOH); eluent B) CH3OH).

With `C[C@@H](C(=O)NCCN1CCCC1)c1ccc(OS(=O)(=O)C(F)(F)F)cc1.Cl`, in series [1], the inhibition at 0.01 µM was found to be 65 ± 18%. For the same compound, in series [2], the “PMN migration by GROα % of inhibition” value is on record as “Inactive^#”. In addition, the inhibition at 0.001 µM in series [3] turned out to be 52 ± 12%. In series [4], this compound showed a half-life of 3.4 h and a bioavailability of 80%. The same compound gave a fraction unbound at 20 min, 50 μg/mL in series [5] of 0.296.
As to `CC(C)Cc1ccc([C@@H](C)C(=O)NS(C)(=O)=O)cc1` [reference compound], in series [1], the “PMN migration by C5a % of inhibition” value was “Inactive^#”. The inhibition at 0.01 µM in series [2] worked out at 10 ± 18%. In series [3], the inhibition at 0.001 µM turned out to be 50 ± 12%. For the same compound, in series [4], the half-life was 0.4 h and the bioavailability is 80%. In addition, in series [5], the fraction unbound at 20 min, 50 μg/mL is 0.0002.
As to `C[C@@H](C(=O)[N-]S(C)(=O)=O)c1ccc(OS(=O)(=O)C(F)(F)F)cc1.[Na+]`, in series [1], the “PMN migration by C5a % of inhibition” value is listed as “Inactive^#”. Also, the inhibition at 0.01 µM in series [2] turned out to be 61 ± 6%. Also, the inhibition at 0.001 µM in series [3] is 58 ± 9%. For the same compound, in series [4], the half-life was 24.7 h and the bioavailability is about 100%. Besides, the fraction unbound at 20 min, 50 μg/mL in series [5] stood at 0.01.
In the case of `C[C@@H](C(N)=O)c1ccc(OS(=O)(=O)C(F)(F)F)cc1`, the “PMN migration by C5a % of inhibition” value in series [1] is reported as “Inactive^#”. Also, the inhibition at 0.01 µM in series [2] was determined as 61 ± 3%. Besides, the inhibition at 0.001 µM in series [3] came to 64 ± 2%. In series [4], the half-life was 2.3 h and the bioavailability was 95%. Moreover, the fraction unbound at 20 min, 50 μg/mL in series [5] is 0.062.
Turning to `CC(C)Cc1ccc([C@@H](C)C(N)=O)cc1` [reference compound], the “PMN migration by C5a % of inhibition” value in series [1] is reported as “Inactive^#”. Also, the inhibition at 0.01 µM in series [2] was 10 ± 7%. In series [3], the inhibition at 0.001 µM worked out at 57 ± 12%. For the same compound, in series [4], the half-life was 0.4 h and the bioavailability worked out at 35%. Also, the fraction unbound at 20 min, 50 μg/mL in series [5] was 0.016.
As to `CC(C)Cc1ccc([C@@H](C)C(=O)NCCCN2CCCCC2)cc1` [reference compound], the inhibition at 0.01 µM in series [1] stood at 55 ± 6%. Further, the inhibition at 0.01 µM in series [2] was determined as 39 ± 10%. In addition, the inhibition at 0.001 µM in series [3] stood at 44 ± 5%. In series [4], this compound showed a half-life of 1.7 h and a bioavailability of 30%. The same compound gave a fraction unbound at 20 min, 50 μg/mL in series [5] of 0.15.
Turning to `C[C@@H](C(=O)NCCCN1CCCC1)c1ccc(OS(=O)(=O)C(F)(F)F)cc1.Cl`, the inhibition at 0.01 µM in series [1] was found to be 67 ± 10%. Besides, the “PMN migration by GROα % of inhibition” value in series [2] is “Inactive^#”. The inhibition at 0.001 µM in series [3] turned out to be 51 ± 13%. In series [4], this compound had a half-life of 2.4 h and a bioavailability of 90%. This compound showed a fraction unbound at 20 min, 50 μg/mL in series [5] of 0.359.

These data come from US8293788B2, “2-phenylpropionic acid derivatives and pharmaceutical compositions containing them” (priority 2004, dated 2012).
